PubChem BioAssay (NCI)
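How tested: cells in 96-well plates exposed to compound for 48 hours at five concentrations. GI50 is the concentration that inhibits growth by half. Definition used: TGI = concentration required for complete inhibition of growth.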

Tests used:
Experiment in all cases: NCI-60 cell line screen, 48 h
SR leukemia = test system: SR leukemia
IGROV1 ovarian = test system: IGROV1 ovarian
SK-OV-3 ovarian = test system: SK-OV-3 ovarian
HCT-116 colon = test system: HCT-116 colon
A498 renal = test system: A498 renal
MCF7 breast = test system: MCF7 breast
TK-10 renal = test system: TK-10 renal
K-562 leukemia = test system: K-562 leukemia
HT29 colon = test system: HT29 colon
CAKI-1 renal = test system: CAKI-1 renal
MALME-3M melanoma = test system: MALME-3M melanoma
UACC-257 melanoma = test system: UACC-257 melanoma
COLO 205 colon = test system: COLO 205 colon
M14 melanoma = test system: M14 melanoma
SF-539 CNS = test system: SF-539 CNS
SF-268 CNS = test system: SF-268 CNS
MOLT-4 leukemia = test system: MOLT-4 leukemia
SK-MEL-2 melanoma = test system: SK-MEL-2 melanoma
OVCAR-8 ovarian = test system: OVCAR-8 ovarian
EKVX NSCLC = test system: EKVX NSCLC
MDA-MB-435 = test system: MDA-MB-435
UO-31 renal = test system: UO-31 renal
OVCAR-5 ovarian = test system: OVCAR-5 ovarian
NCI-H460 lung = test system: NCI-H460 lung
T-47D breast = test system: T-47D breast
U251 CNS = test system: U251 CNS
LOX IMVI melanoma = test system: LOX IMVI melanoma
RPMI-8226 leukemia = test system: RPMI-8226 leukemia
DU-145 prostate = test system: DU-145 prostate
786-0 renal = test system: 786-0 renal
HCT-15 colon = test system: HCT-15 colon
HOP-92 NSCLC = test system: HOP-92 NSCLC
HCC-2998 colon = test system: HCC-2998 colon
OVCAR-3 ovarian = test system: OVCAR-3 ovarian
A549 NSCLC = test system: A549 NSCLC
SN12C renal = test system: SN12C renal
NCI/ADR-RES ovarian = test system: NCI/ADR-RES ovarian
HOP-62 NSCLC = test system: HOP-62 NSCLC
BT-549 breast = test system: BT-549 breast
SW-620 colon = test system: SW-620 colon
SK-MEL-5 melanoma = test system: SK-MEL-5 melanoma
HS 578T breast = test system: HS 578T breast
HL-60(TB) leukemia = test system: HL-60(TB) leukemia
NCI-H23 lung = test system: NCI-H23 lung
RXF 393 renal = test system: RXF 393 renal
PC-3 prostate = test system: PC-3 prostate
SNB-75 CNS = test system: SNB-75 CNS
SK-MEL-28 melanoma = test system: SK-MEL-28 melanoma
SF-295 CNS = test system: SF-295 CNS
SNB-19 CNS = test system: SNB-19 CNS
NCI-H522 lung = test system: NCI-H522 lung
OVCAR-4 ovarian = test system: OVCAR-4 ovarian
KM12 colon = test system: KM12 colon
MDA-MB-231 breast = test system: MDA-MB-231 breast
CCRF-CEM leukemia = test system: CCRF-CEM leukemia
UACC-62 melanoma = test system: UACC-62 melanoma
ACHN renal = test system: ACHN renal
NCI-H226 lung = test system: NCI-H226 lung

## Nc1ncnc2occ(-c3ccc(NC(=O)Nc4cc(C(F)(F)F)cc(C(F)(F)F)c4)cc3)c12
SR leukemia
  GI50: 2.03 µM
  TGI: 15.2 µM
IGROV1 ovarian
  GI50: 3.05 µM
  TGI: 9.94 µM
SK-OV-3 ovarian
  GI50: 3.37 µM
  TGI: 6.67 µM
HCT-116 colon
  GI50: 2.63 µM
  TGI: 5.64 µM
A498 renal
  GI50: 0.144 µM
  TGI: 1.62 µM
MCF7 breast
  GI50: 3.19 µM
  TGI: 6.96 µM
TK-10 renal
  GI50: 1.84 µM
  TGI: 5.96 µM
K-562 leukemia
  GI50: 0.925 µM
  TGI: 9.21 µM
HT29 colon
  GI50: 1.83 µM
  TGI: 5.29 µM
CAKI-1 renal
  GI50: 2.6 µM
  TGI: 10 µM
MALME-3M melanoma
  GI50: 4.09 µM
  TGI: 9.27 µM
UACC-257 melanoma
  GI50: 3.27 µM
  TGI: 6.69 µM
COLO 205 colon
  GI50: 4.23 µM
  TGI: 7.96 µM
M14 melanoma
  GI50: 3.09 µM
  TGI: 6.4 µM
SF-539 CNS
  GI50: 1.06 µM
  TGI: 5.44 µM
SF-268 CNS
  GI50: 2.92 µM
  TGI: 6.66 µM
MOLT-4 leukemia
  GI50: 4.16 µM
  TGI: 17.8 µM
SK-MEL-2 melanoma
  GI50: 3.72 µM
  TGI: 7.47 µM
OVCAR-8 ovarian
  GI50: 2.89 µM
  TGI: 7.11 µM
EKVX NSCLC
  GI50: 3.16 µM
  TGI: 8.07 µM
MDA-MB-435
  GI50: 3.45 µM
  TGI: 7.15 µM
UO-31 renal
  GI50: 1.93 µM
  TGI: 6.89 µM
OVCAR-5 ovarian
  GI50: 4.39 µM
  TGI: 8.99 µM
NCI-H460 lung
  GI50: 3.1 µM
  TGI: 6.7 µM
T-47D breast
  GI50: 3.27 µM
  TGI: 7.54 µM
U251 CNS
  GI50: 3.28 µM
  TGI: 6.64 µM
LOX IMVI melanoma
  GI50: 3.27 µM
  TGI: 6.83 µM
RPMI-8226 leukemia
  GI50: 3.68 µM
  TGI: 16.4 µM
DU-145 prostate
  GI50: 3.59 µM
  TGI: 7.34 µM
786-0 renal
  GI50: 3.54 µM
  TGI: 7.07 µM
HCT-15 colon
  GI50: 2.98 µM
  TGI: 7.83 µM
HOP-92 NSCLC
  GI50: 0.977 µM
  TGI: 4.42 µM
HCC-2998 colon
  GI50: 4.63 µM
  TGI: 8.27 µM
OVCAR-3 ovarian
  GI50: 3.24 µM
  TGI: 6.71 µM
A549 NSCLC
  GI50: 3 µM
  TGI: 7.18 µM
SN12C renal
  GI50: 2.12 µM
  TGI: 5.51 µM
NCI/ADR-RES ovarian
  GI50: 3.44 µM
  TGI: 9.07 µM
HOP-62 NSCLC
  GI50: 3.66 µM
  TGI: 6.99 µM
BT-549 breast
  GI50: 2.66 µM
  TGI: 5.77 µM
SW-620 colon
  GI50: 4.01 µM
  TGI: 7.61 µM
SK-MEL-5 melanoma
  GI50: 3.52 µM
  TGI: 6.82 µM
HS 578T breast
  GI50: 2.12 µM
  TGI: 8.03 µM
HL-60(TB) leukemia
  GI50: 4.13 µM
  TGI: 12.9 µM
NCI-H23 lung
  GI50: 3.12 µM
  TGI: 6.86 µM
RXF 393 renal
  GI50: 1.24 µM
  TGI: 4.51 µM
PC-3 prostate
  GI50: 3.07 µM
  TGI: 8.33 µM
SNB-75 CNS
  GI50: 1.42 µM
  TGI: 4.88 µM
SK-MEL-28 melanoma
  GI50: 4.24 µM
  TGI: 7.77 µM
SF-295 CNS
  GI50: 2.72 µM
  TGI: 6.53 µM
SNB-19 CNS
  GI50: 4.1 µM
  TGI: 9.54 µM
NCI-H522 lung
  GI50: 2.55 µM
  TGI: 5.67 µM
OVCAR-4 ovarian
  GI50: 1.81 µM
  TGI: 5.92 µM
KM12 colon
  GI50: 0.0916 µM
  TGI: 3.95 µM
MDA-MB-231 breast
  GI50: 4.3 µM
  TGI: 9.09 µM
CCRF-CEM leukemia
  GI50: 4.5 µM
  TGI: 19.2 µM
UACC-62 melanoma
  GI50: 3.26 µM
  TGI: 6.68 µM
ACHN renal
  GI50: 2.94 µM
  TGI: 12.6 µM
NCI-H226 lung
  GI50: 0.584 µM
  TGI: 4.53 µM
